The record followed here is patent US20230372498A1, “PLK1 SELECTIVE DEGRADATION INDUCING COMPOUND” (UPPTHERA, priority 2020, published 2023).

The term Dmax denotes the greatest extent of degradation seen. By DC50 is commonly meant the midpoint of the concentration-degradation curve.

The target in this assay is T1, PLK1 (Homo sapiens, UniProt P53350).
T1 construct: endogenous in cells; host or cells: HeLa
Put plainly: PLK1 protein degradation in HeLa cells, Western blotting (PLK1/GAPDH ratio). The format is cell-based. Particulars: 6 hours compound incubation; for Dmax: thymidine block and release, 10 points three-fold from 3 μM, PLK1 to GAPDH ratio, read-out: Dmax; for DC50: measured only if the grade of Dmax is A or B. In short, it runs like this:
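Thymidine-synchronised HeLa cells (2 mM, 24 h) released 4 h into complete medium, then treated 6 h with compound in 10-point 3-fold dilutions from 3 μM. RIPA lysates (15 μg protein) run on SDS-PAGE; PLK1 Western blot normalised to GAPDH.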

Molecules are shown by their SMILES.

T1 sequence (P53350 whole entry): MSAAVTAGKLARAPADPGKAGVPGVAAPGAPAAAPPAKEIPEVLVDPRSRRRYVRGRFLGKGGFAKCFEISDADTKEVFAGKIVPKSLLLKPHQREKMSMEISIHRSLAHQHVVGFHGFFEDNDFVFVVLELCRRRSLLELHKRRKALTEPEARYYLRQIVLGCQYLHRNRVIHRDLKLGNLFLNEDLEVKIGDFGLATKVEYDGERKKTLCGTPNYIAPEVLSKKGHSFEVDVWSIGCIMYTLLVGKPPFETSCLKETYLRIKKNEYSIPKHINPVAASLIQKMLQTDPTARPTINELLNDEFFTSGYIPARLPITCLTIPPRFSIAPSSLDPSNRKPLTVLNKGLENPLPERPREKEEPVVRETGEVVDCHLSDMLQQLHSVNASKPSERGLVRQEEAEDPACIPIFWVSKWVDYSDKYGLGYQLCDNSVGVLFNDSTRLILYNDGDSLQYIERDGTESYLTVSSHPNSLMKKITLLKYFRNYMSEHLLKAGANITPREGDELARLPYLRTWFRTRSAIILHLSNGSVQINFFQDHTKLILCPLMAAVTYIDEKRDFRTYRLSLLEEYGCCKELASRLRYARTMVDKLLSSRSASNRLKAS

Take `COc1cc(C(=O)NC2CCN(CCCCCNC(=O)COc3cccc4c3C(=O)N(C3CCC(=O)NC3=O)C4=O)CC2)c(F)cc1Nc1ncc2c(n1)N(C1CCCC1)CC(F)(F)C(=O)N2C` (stereo not drawn) [Compound 59, 4-((9-cyclopentyl-7,7-difluoro-5-methyl-6-oxo-6,7,8,9-tetrahydro-5H-pyrimido[4,5-b][1,4]diazepin-2-yl)amino)-N-(1-(5-(2-((2-(2,6-dioxopiperidin-3-yl)-1,3-dioxoisoindolin-4-yl)oxy)acetamido)pentyl)piperidin-4-yl)-2-fluoro-5-methoxybenzamide]: the Dmax was less than 60%.

In the case of `COc1cc(C(=O)N[C@@H]2CCN(C(=O)CCCN3CCN(c4ccc5c(c4)C(=O)N(C4CCC(=O)NC4=O)C5=O)CC3)C2)c(F)cc1Nc1ncc2c(n1)N(C1CCCC1)CC(F)(F)C(=O)N2C` (stereo partly drawn) [Compound 138, 4-((9-cyclopentyl-7,7-difluoro-5-methyl-6-oxo-6,7,8,9-tetrahydro-5H-pyrimido[4,5-b][1,4]diazepin-2-yl)amino)-N-((3R)-1-(4-(4-(2-(2,6-dioxopiperidin-3-yl)-1,3-dioxoisoindolin-5-yl)piperazin-1-yl)butanoyl)pyrrolidin-3-yl)-2-fluoro-5-methoxybenzamide], the DC50 is no more than 50 nM and the maximal degradation (Dmax) is no less than 80%.

`COc1cc(C(=O)N[C@H]2CCN(CCOCCNC(=O)CNc3cccc4c3C(=O)N(C3CCC(=O)NC3=O)C4=O)C2)c(F)cc1Nc1ncc2c(n1)N(C1CCCC1)CC(F)(F)C(=O)N2C` (stereo partly drawn) [Example 112, 4-((9-cyclopentyl-7,7-difluoro-5-methyl-6-oxo-6,7,8,9-tetrahydro-5H-pyrimido[4,5-b][1,4]diazepin-2-yl)amino)-N-((3S)-1-(2-(2-(2-((2-(2,6-dioxopiperidin-3-yl)-1,3-dioxoisoindolin-4-yl)amino)acetamido)ethoxy)ethyl)pyrrolidin-3-yl)-2-fluoro-5-methoxybenzamide]: the DC50 was no more than 500 nM and the Dmax lay in the range of 60 to 80%.

With `COc1cc(C(=O)NCCCCCc2cccc3c2CN(C2CCC(=O)NC2=O)C3=O)c(F)cc1Nc1ncc2c(n1)N(C1CCCC1)CC(F)(F)C(=O)N2C` (stereo not drawn) [Example 165, 4-((9-cyclopentyl-7,7-difluoro-5-methyl-6-oxo-6,7,8,9-tetrahydro-5H-pyrimido[4,5-b][1,4]diazepin-2-yl)amino)-N-(5-(2-(2,6-dioxopiperidin-3-yl)-1-oxoisoindolin-4-yl)pentyl)-2-fluoro-5-methoxybenzamide], the Dmax is less than 60%.

On to `COc1cc(C(=O)NC2CCN(CCOCCOCCNc3ccc4c(c3)C(=O)N(C3CCC(=O)NC3=O)C4=O)CC2)c(F)cc1Nc1ncc2c(n1)N(C1CCCC1)CC(F)(F)C(=O)N2C` (stereo not drawn) [Compound 50, 4-((9-cyclopentyl-7,7-difluoro-5-methyl-6-oxo-6,7,8,9-tetrahydro-5H-pyrimido[4,5-b][1,4]diazepin-2-yl)amino)-N-(1-(2-(2-(2-((2-(2,6-dioxopiperidin-3-yl)-1,3-dioxoisoindolin-5-yl)amino)ethoxy)ethoxy)ethyl)piperidin-4-yl)-2-fluoro-5-methoxybenzamide], for which the DC50 was no more than 50 nM and the Dmax was no less than 80%.

As for `COc1cc(C(=O)NC2CCN(CCOCCNC(=O)CNc3cccc4c3C(=O)N(C3CCC(=O)NC3=O)C4=O)CC2)c(F)cc1Nc1ncc2c(n1)N(C1CCCC1)CC(F)(F)C(=O)N2C` (stereo not drawn) [Compound 29, 4-((9-cyclopentyl-7,7-difluoro-5-methyl-6-oxo-6,7,8,9-tetrahydro-5H-pyrimido[4,5-b][1,4]diazepin-2-yl)amino)-N-(1-(2-(2-(2-((2-(2,6-dioxopiperidin-3-yl)-1,3-dioxoisoindolin-4-yl)amino)acetamido)ethoxy)ethyl)piperidin-4-yl)-2-fluoro-5-methoxybenzamide], the DC50 is no more than 50 nM and the Dmax is no less than 80%.

For the compound `COc1cc(C(=O)N[C@H]2CCN(C(=O)CCCC(=O)N3CCN(c4cccc5c4C(=O)N(C4CCC(=O)NC4=O)C5=O)CC3)C2)c(F)cc1Nc1ncc2c(n1)N(C1CCCC1)CC(F)(F)C(=O)N2C` (stereo partly drawn) [Compound 143, 4-((9-cyclopentyl-7,7-difluoro-5-methyl-6-oxo-6,7,8,9-tetrahydro-5H-pyrimido[4,5-b][1,4]diazepin-2-yl)amino)-N-((3S)-1-(5-(4-(2-(2,6-dioxopiperidin-3-yl)-1,3-dioxoisoindolin-4-yl)piperazin-1-yl)-5-oxopentanoyl)pyrrolidin-3-yl)-2-fluoro-5-methoxybenzamide], the DC50 was no more than 500 nM and the Dmax lay within 60 to 80%.

With `COc1cc(C(=O)NC2CCN(CCOCCOCCOCC(=O)N[C@H](C(=O)N3C[C@H](O)C[C@H]3C(=O)NCc3ccc(-c4scnc4C)cc3)C(C)(C)C)CC2)c(F)cc1Nc1ncc2c(n1)N(C1CCCC1)CC(F)(F)C(=O)N2C` [Compound 81], the Dmax is less than 60%.

Take `COc1cc(C(=O)NC2CCN(CCOCCCOCCOCCOCCNc3cccc4c3C(=O)N(C3CCC(=O)NC3=O)C4=O)CC2)c(F)cc1Nc1ncc2c(n1)N(C1CCCC1)CC(F)(F)C(=O)N2C` (stereo not drawn) [Compound 25, 4-((9-cyclopentyl-7,7-difluoro-5-methyl-6-oxo-6,7,8,9-tetrahydro-5H-pyrimido[4,5-b][1,4]diazepin-2-yl)amino)-N-(1-(1-((2-(2,6-dioxopiperidin-3-yl)-1,3-dioxoisoindolin-4-yl)amino)-3,6,9,13-tetraoxapentadecan-15-yl)piperidin-4-yl)-2-fluoro-5-methoxybenzamide]: the DC50 is no more than 50 nM and the Dmax was no less than 80%.

Consider `COc1cc(C(=O)NC2CCN(C(=O)N3CCN(c4ccc5c(c4)C(=O)N(C4CCC(=O)NC4=O)C5=O)CC3)CC2)c(F)cc1Nc1ncc2c(n1)N(C1CCCC1)CC(F)(F)C(=O)N2C` (stereo not drawn) [Compound 72, 4-((9-cyclopentyl-7,7-difluoro-5-methyl-6-oxo-6,7,8,9-tetrahydro-5H-pyrimido[4,5-b][1,4]diazepin-2-yl)amino)-N-(1-(4-(2-(2,6-dioxopiperidin-3-yl)-1,3-dioxoisoindolin-5-yl)piperazine-1-carbonyl)piperidin-4-yl)-2-fluoro-5-methoxybenzamide], for which the DC50 was no more than 500 nM and the maximal degradation (Dmax) lay in the range of 60 to 80%.

As for `COc1cc(C(=O)NCCCCCNC(=O)COc2cccc3c2C(=O)N(C2CCC(=O)NC2=O)C3=O)c(F)cc1Nc1ncc2c(n1)N(C1CCCC1)CC(F)(F)C(=O)N2C` (stereo not drawn) [Compound 162, 4-((9-cyclopentyl-7,7-difluoro-5-methyl-6-oxo-6,7,8,9-tetrahydro-5H-pyrimido[4,5-b][1,4]diazepin-2-yl)amino)-N-(5-(2-((2-(2,6-dioxopiperidin-3-yl)-1,3-dioxoisoindolin-4-yl)oxy)acetamido)pentyl)-2-fluoro-5-methoxybenzamide], the DC50 was no more than 50 nM and the Dmax is no less than 80%.

Take `COc1cc(C(=O)NC2CCN(Cc3cn(CCOCCNc4cccc5c4C(=O)N(C4CCC(=O)NC4=O)C5=O)nn3)CC2)c(F)cc1Nc1ncc2c(n1)N(C1CCCC1)CC(F)(F)C(=O)N2C` (stereo not drawn) [Compound 44, 4-((9-cyclopentyl-7,7-difluoro-5-methyl-6-oxo-6,7,8,9-tetrahydro-5H-pyrimido[4,5-b][1,4]diazepin-2-yl)amino)-N-(1-((1-(2-(2-((2-(2,6-dioxopiperidin-3-yl)-1,3-dioxoisoindolin-4-yl)amino)ethoxy)ethyl)-1H-1,2,3-triazol-4-yl)methyl)piperidin-4-yl)-2-fluoro-5-methoxybenzamide]: the DC50 is no more than 50 nM and the Dmax was no less than 80%.
